Measurements as given in patent publication US8569302B2, “Inhibitors of flaviviridae viruses” (Gilead Sciences, Inc., priority 2009, dated 2013).

Tested on: human hepatoma Huh-7 cell line harboring a HCV replicon
Assay: HCV replicon assay (inhibition of viral replication, luciferase readout)
Assay type: cell-based
Conditions: Hepatitis C virus, 72 h, Huh-7 HCV replicon cells, 3 days incubation
In short: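 Read-outs: luciferase luminescence for replication inhibition, corrected by ITMN-191 (100% inhibition) wells, and calcein AM fluorescence for cytotoxicity. Cells were treated for 3 days at 37 °C with ten 3-fold compound dilutions in 0.44% final DMSO. Percent inhibition relative to DMSO was fitted with a Hill equation to give EC50 and CC50.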

Structure (SMILES)	inhibition at 2 µM
CC(C)(C)C#Cc1cc(N(C(=O)[C@H]2CC[C@H](C)CC2)[C@H]2CC[C@H](Oc3ccnnc3)CC2)c(C(=O)O)s1 [Compound 185, 5-(3,3-Dimethylbut-1-ynyl)-3-(4-methyl-N-(4-(pyridazin-4-yloxy)cyclohexyl)cyclohexanecarboxamido)thiophene-2-carboxylic acid]	84.7%
CC1CCC(C(=O)N(c2cc(C#CC(C)(C)C)sc2C(=O)O)C2CCC(Oc3cccc(CN4CCCC4)n3)CC2)CC1 (stereo not drawn) [Compound 187, 3-[[-4-(6-pyrrolidin-1-ylmethyl-pyridin-2-yloxy)-cyclohexyl]-(4-methyl-cyclohexanecarbonyl)-amino]-5-(3,3-Dimethyl-but-1-ynyl)-thiophene-2-carboxylic acid]	100%
CC1CCC(C(=O)N(c2cc(C#CC(C)(C)C)sc2C(=O)O)[C@H]2CC[C@H](Oc3cccc(CN4CCOCC4)n3)CC2)CC1 (stereo partly drawn) [Compound 188, 3-[[-4-(6-morpholin-1-ylmethyl-pyridin-2-yloxy)-cyclohexyl]-(4-methyl-cyclohexanecarbonyl)-amino]-5-(3,3-Dimethyl-but-1-ynyl)-thiophene-2-carboxylic acid]	100%
CC1CCC(C(=O)N(c2cc(C#CC(C)(C)C)sc2C(=O)O)[C@H]2CC[C@H](Oc3cc(CN4CCCC4=O)ccn3)CC2)CC1 (stereo partly drawn) [Compound 189, 3-[[-4-(4-pyrrolidin-2-one-1-ylmethyl-pyridin-2-yloxy)-cyclohexyl]-(4-methyl-cyclohexanecarbonyl)-amino]-5-(3,3-Dimethyl-but-1-ynyl)-thiophene-2-carboxylic acid]	99.9%
CC1CCC(C(=O)N(c2cc(C#CC(C)(C)C)sc2C(=O)O)[C@H]2CC[C@H](Oc3cc(CN4CCC(O)C4)ccn3)CC2)CC1 (stereo partly drawn) [Compound 190, 3-[[-4-[4-(3-hydroxy-pyrrolidin-1-ylmethyl)-pyridin-2-yloxy]-cyclohexyl]-(4-methyl-cyclohexanecarbonyl)-amino]-5-(3,3-Dimethyl-but-1-ynyl)-thiophene-2-carboxylic acid]	100%
CC1CCC(C(=O)N(c2cc(C#CC(C)(C)C)sc2C(=O)O)[C@H]2CC[C@H](Oc3cc(CN(C)CCO)ccn3)CC2)CC1 (stereo partly drawn) [Compound 191, 3-[[-4-[4-{[(2-hydroxy-ethyl)-methyl-amino]-1-ylmethyl}-pyridin-2-yloxy]-cyclohexyl]-(4-methyl-cyclohexanecarbonyl)-amino]-5-(3,3-Dimethyl-but-1-ynyl)-thiophene-2-carboxylic acid]	100%
CC1CCC(C(=O)N(c2cc(C#CC(C)(C)C)sc2C(=O)O)[C@H]2CC[C@H](Oc3cncc(CN(C)C)c3)CC2)CC1 (stereo partly drawn) [Compound 192, 3-[[-4-(5-dimethylaminomethyl-pyridin-3-yloxy)-cyclohexyl]-(4-methyl-cyclohexanecarbonyl)-amino]-5-(3,3-dimethyl-but-1-ynyl)-thiophene-2-carboxylic acid]	100%
CC1CCC(C(=O)N(c2cc(C#CC(C)(C)C)sc2C(=O)O)[C@H]2CC[C@H](Oc3cncc(CN4CCCC4)c3)CC2)CC1 (stereo partly drawn) [Compound 193, 3-[[-4-(5-pyrrolidin-1-ylmethyl-pyridin-3-yloxy)-cyclohexyl]-(4-methyl-cyclohexanecarbonyl)-amino]-5-(3,3-dimethyl-but-1-ynyl)-thiophene-2-carboxylic acid]	100%
CC1CCC(C(=O)N(c2cc(C#CC(C)(C)C)sc2C(=O)O)[C@H]2CC[C@H](Oc3cncc(CN4CCOCC4)c3)CC2)CC1 (stereo partly drawn) [Compound 194, 3-[[4-(5-morpholin-4-ylmethyl-pyridin-3-yloxy)-cyclohexyl]-(4-methyl-cyclohexanecarbonyl)-amino]-5-(3,3-dimethyl-but-1-ynyl)-thiophene-2-carboxylic acid]	99.9%
CC1CCC(C(=O)N(c2cc(C#CC(C)(C)C)sc2C(=O)O)[C@H]2CC[C@H](Oc3cnccc3CN3CCC(N(C)C)C3)CC2)CC1 (stereo partly drawn) [Compound 195, 3-[[-4-(3-dimethylamino-pyrrolidin-1-ylmethyl-pyridin-3-yloxy)-cyclohexyl]-(4-methyl-cyclohexanecarbonyl)-amino]-5-(3,3-dimethyl-but-1-ynyl)-thiophene-2-carboxylic acid]	99.7%
CC1CCC(C(=O)N(c2cc(C#CC(C)(C)C)sc2C(=O)O)[C@H]2CC[C@H](Oc3cnccc3CN3CCCC3)CC2)CC1 (stereo partly drawn) [Compound 196, 3-[[-4-(4-pyrrolidin-1-ylmethyl-pyridin-3-yloxy)-cyclohexyl]-(4-methyl-cyclohexanecarbonyl)-amino]-5-(3,3-dimethyl-but-1-ynyl)-thiophene-2-carboxylic acid]	100%
CC1CCC(C(=O)N(c2cc(C#CC(C)(C)C)sc2C(=O)O)[C@H]2CC[C@H](Oc3cnccc3CN3CCC3)CC2)CC1 (stereo partly drawn) [Compound 197, 3-[[-4-(4-azetidin-1-ylmethyl-pyridin-3-yloxy)-cyclohexyl]-(4-methyl-cyclohexanecarbonyl)-amino]-5-(3,3-dimethyl-but-1-ynyl)-thiophene-2-carboxylic acid]	99.9%
CC1CCC(C(=O)N(c2cc(C#CC(C)(C)C)sc2C(=O)O)[C@H]2CC[C@H](Oc3cnccc3CN(C)C)CC2)CC1 (stereo partly drawn) [Compound 198, 3-[[-4-(4-dimethylaminomethyl-pyridin-3-yloxy)-cyclohexyl]-(4-methyl-cyclohexanecarbonyl)-amino]-5-(3,3-dimethyl-but-1-ynyl)-thiophene-2-carboxylic acid]	99.9%
CC1CCC(C(=O)N(c2cc(C#CC(C)(C)C)sc2C(=O)O)[C@H]2CC[C@H](Oc3ccnc(CN4CCCC4)c3)CC2)CC1 (stereo partly drawn) [Compound 199, 3-[[-4-(2-pyrrolidin-1-ylmethyl-pyridin-4-yloxy)-cyclohexyl]-(4-methyl-cyclohexanecarbonyl)-amino]-5-(3,3-dimethyl-but-1-ynyl)-thiophene-2-carboxylic acid]	99.9%
CC1CCC(C(=O)N(c2cc(C#CC(C)(C)C)sc2C(=O)O)[C@H]2CC[C@H](Oc3ccnc(CN(C)C)c3)CC2)CC1 (stereo partly drawn) [Compound 200, 3-[[-4-(2-dimethylaminomethyl-pyridin-4-yloxy)-cyclohexyl]-(4-methyl-cyclohexanecarbonyl)-amino]-5-(3,3-dimethyl-but-1-ynyl)-thiophene-2-carboxylic acid]	100%
Cn1cnc(S(=O)(=O)N2CCC(N(c3cc(C#CC(C)(C)C)sc3C(=O)O)C(=O)[C@H]3CC[C@H](C)CC3)CC2)c1 [Compound 201, 5-(3,3-Dimethyl-but-1-ynyl)-3-{(4-methyl-cyclohexanecarbonyl)-[1-(1-methyl-1′-1-imidazole-4-sulfonyl)-piperidin-4-yl]-amino}-thiophene-2-carboxylic acid]	100%
CC(C)(C)C#Cc1cc(N(C(=O)[C@H]2CC[C@H](C)CC2)C2CCN(S(=O)(=O)c3nnc[nH]3)CC2)c(C(=O)O)s1 [Compound 202, 5-(3,3-Dimethyl-but-1-ynyl)-3-{(4-methyl-cyclohexanecarbonyl)-[1-(4H-[1,2,4]triazole-3-sulfonyl)-piperidin-4-yl]-amino}-thiophene-2-carboxylic acid]	96.4%
Cn1nccc1S(=O)(=O)N1CCC(N(c2cc(C#CC(C)(C)C)sc2C(=O)O)C(=O)[C@H]2CC[C@H](C)CC2)CC1 [Compound 203, 5-(3,3-Dimethyl-but-1-ynyl)-3-{(4-methyl-cyclohexanecarbonyl)-[1-(2-methyl-2H-pyrazole-3-sulfonyl)-piperidin-4-yl]-amino}-thiophene-2-carboxylic acid]	99.8%
